Test results: ChEMBL document CHEMBL2448809, “UCSF DeRisi Lab MMV Box Apicoplast Screening”

System: Plasmodium falciparum
Experiment: MMV: Compounds (1uM) were screened in a 72hr growth assay monitored by flow cytometry both in the presence and absence of supplemental isopentenyl pyrophosphate (IPP) 200uM. Compounds which fail to show anti-malarial activity when chemically rescued by IPP are therefore specific to the apicoplast. The values are expressed as the ratio of the corresponding activity with and without IPP, respectively.
Format: functional, W2

CCCCOC(=O)c1ccc(Nc2cc(C)nc3ccc(OC)cc23)cc1
Ratio: 1.132

CCOc1ccccc1CN1CCc2nc3cc(C(C)(C)C)nn3c(O)c2C1
Ratio: 0.8444

O=C(Nc1cccc(C(F)(F)F)c1)c1cc(Cl)ccc1O
Ratio: 0.9697

COc1ccc(-c2cc(=O)oc3c4c(ccc23)OCN(Cc2ccc(F)cc2)C4)cc1
Ratio: 0.9508

Cc1cc(NC(=O)c2cccc(C(F)(F)F)c2)n(-c2nc(-c3ccc4c(c3)OCO4)cs2)n1
Ratio: 0.8908

Cc1ccc(-c2nc3ccccc3o2)cc1NCc1cc(Cc2ccccc2)ccc1O
Ratio: 1.167

COc1ccc2c(c1OC)C(=O)N1c3ccccc3N=C(c3ccc(C)cc3)CC21 (stereo not given)
Ratio: 1.052

CC(=O)Nc1nnc(SCc2c(C)cc(C(C)(C)C)cc2C)s1
Ratio: 0.8169

CCCCN(CCCC)S(=O)(=O)c1ccc(NC(=O)c2ccco2)cc1
Ratio: 0.8649

COc1ccc(CCN2CCC(CN(C)Cc3cnn(-c4ccccc4)c3)CC2)cc1
Ratio: 0.8571

COc1ccccc1CNC(=O)C1c2ccccc2C(=O)N(CC(C)C)C1c1cccs1 (stereo not given)
Ratio: 1.038

COc1ccc(Br)cc1C1Nc2ccc3ccccc3c2C2=C1C(=O)CC(c1ccccc1)C2 (stereo not given)
Ratio: 0.8077

CC1CN(C(=O)c2sc3ccccc3c2Cl)CC(C)O1 (stereo not given)
Ratio: 0.8415

O=C(Nc1ccc(Cl)c(Cl)c1)Nc1ccc(Cl)c(Cl)c1
Ratio: 1.022

Cl.OC(CNCc1ccccc1)Cn1c2ccccc2c2ccccc21 (stereo not given)
Ratio: 0.9403

CCOC(=O)c1cnc2c(C)cccc2c1Nc1ccc(C(C)=O)cc1
Ratio: 1.3

COc1cccc(C=Cc2nc(=O)c3ccccc3o2)c1OC
Ratio: 0.4632

Cc1ccc2c(C)nc(Nc3nc(C)cc(-c4ccccc4)n3)nc2c1
Ratio: 0.8649

CCOc1ccc(CN2CCN(CC(O)COc3ccc(OCC(O)CN4CCN(Cc5ccc(OCC)cc5)CC4)cc3)CC2)cc1 (stereo not given)
Ratio: 0.9863

O=C(Nc1ccc(CN2CCOCC2)cc1)c1ccc(-c2ccc(Br)cc2)o1
Ratio: 0.6519

CCOc1c(Cl)cc(CNCC(O)c2ccccc2)cc1OC (stereo not given)
Ratio: 0.8286

O=C(O)C1Cc2c([nH]c3ccccc23)C(c2ccc(Cl)cc2Cl)N1 (stereo not given)
Ratio: 6.316

COc1ccc(CN2CCCC(C(=O)c3ccc(C(F)(F)F)cc3)C2)c(O)c1 (stereo not given)
Ratio: 0.8852

CCCCCCc1cc2cc(-c3nc4ccccc4[nH]3)c(=Nc3ccccc3C)oc2cc1O
Ratio: 0.9685

COc1nc(Nc2ccc(C(C)C)cc2)nc(OC)n1
Ratio: 0.9479

CCC(C)NCC(O)(c1ccc(Cl)cc1)c1ccc(Cl)cc1 (stereo not given)
Ratio: 1.02

COc1ccc2nc(C)cc(Nc3ccc(Cl)cc3)c2c1
Ratio: 0.8189

CCN1CCN(c2c(C(=O)c3ccccc3)cnc3cc(OC)c(OC)cc23)CC1
Ratio: 0.9828

COc1ccc(Nc2nc(N/N=C/c3ccc(O)cc3)nc(Nc3ccc([N+](=O)[O-])cc3)n2)cc1
Ratio: 1.812

COc1ccc(C2c3ccc4ccccc4c3Oc3ncn(CCCn4ccnc4)c(=N)c32)cc1OC (stereo not given)
Ratio: 1.051

Cc1ccc(Nc2nc(N)c3ccccc3n2)cc1Cl
Ratio: 0.9206

COc1ccc2nc(C)cc(Nc3cccc(O)c3)c2c1.Cl
Ratio: 1.191

O=c1cc(NC2CCN(CCCc3ccccc3)CC2)c2cc(Cl)ccc2o1
Ratio: 1.019

CN(C)c1ccc(N=Cc2ccc(N3CCOCC3)cc2)cc1
Ratio: 0.9558

CN(C)c1ccc(-c2nc3cc(N)ccc3[nH]2)cc1
Ratio: 1.036

O=C(NCc1ccco1)C1CCN(S(=O)(=O)c2ccc(Br)cc2)CC1
Ratio: 0.7733

COc1cc2c3cc1Oc1c(OC)c(OC)cc4c1C(Cc1ccc(O)c(c1)Oc1ccc(cc1)CC3N(C)CC2)N(C)CC4.Cl (stereo not given)
Ratio: 0.95

C=CCc1c(C)nc2ccccc2c1O
Ratio: 0.9595

COc1ccc(-c2nc(NC(=O)CS(=O)(=O)c3ccc(F)cc3)sc2C)cc1
Ratio: 0.8289

c1ccc2c(NCCc3c[nH]c4ccccc34)c3ccccc3nc2c1
Ratio: 1.057

O=C(NCc1ccco1)C1CCN(S(=O)(=O)c2ccc(Cl)cc2)CC1
Ratio: 0.8889

COc1cccc(C(=O)Nc2ccc(-c3nc4ccccc4[nH]3)cc2)c1
Ratio: 0.7651

COc1ccc2nc(N)nc(C)c2c1
Ratio: 0.8974

CCCCCCc1cc2cc(-c3csc(C=Cc4ccccc4)n3)c(=O)oc2cc1O
Ratio: 0.86

CCOC(=O)c1cnc2c(C)cc(C)cc2c1Nc1ccc(OC)c(OC)c1
Ratio: 1.122

COc1cc(C(=O)ON=C(N)Cc2cccc3ccccc23)cc(OC)c1OC
Ratio: 1.265

Cc1cc(C)cc(Nc2cc(C)nc3nc(C(F)(F)F)nn23)c1
Ratio: 0.8519

OC(CNC1CCCCC1)Cn1c2ccc(I)cc2c2cc(I)ccc21 (stereo not given)
Ratio: 1.043

CCN1CCCC1CNc1[nH]cnc2c3cc(Cl)ccc3nc1-2 (stereo not given)
Ratio: 0.925

O=C1CC(O)(C(F)(F)C(F)(F)F)Oc2ccccc21 (stereo not given)
Ratio: 0.8205

CCn1c(SCC(=O)Nc2cc(C(F)(F)F)ccc2Cl)nc2ccccc2c1=O
Ratio: 1

Cl.Clc1cc(Br)ccc1-c1ccc(CNCC2CCNCC2)o1
Ratio: 1.173

O=C(CCc1ccccc1)c1ccccc1OCC(O)CN1CCCCC1 (stereo not given)
Ratio: 1

CN(C)CCNc1cc(-c2ccccc2)nc2ccccc12
Ratio: 1.015

CNCCCNc1ccnc2cc(Cl)ccc12
Ratio: 0.8333

FC(F)(F)c1ccc(Nc2nnnc3ccccc23)cc1
Ratio: 1.052

CSC1=NC(=Nc2c(C)cccc2C)C2(CCC(C(C)(C)C)CC2)N1c1ccc(Cl)cc1 (stereo not given)
Ratio: 0.8243

O=[N+]([O-])c1ccc(C=NNc2nc3ccccc3[nH]2)cc1
Ratio: 1.132

CN1CCN(c2c3c(c(C#N)c4nc5ccccc5n24)CCC3)CC1
Ratio: 1.032

c1ccc(CNc2nc(Nc3ccccc3)nc3ccccc23)cc1
Ratio: 1

COc1cccc(C(=O)NC(c2ccc(C)cc2)c2cc(Cl)c3cccnc3c2O)c1 (stereo not given)
Ratio: 1.1

Cc1ccc(CN2CCC(C(=O)Nc3ccc(-c4cc5ccccc5[nH]4)cc3)CC2)o1
Ratio: 0.8636

COc1ccc(-c2cc3c(nn2)-c2ccccc2C3=O)cc1
Ratio: 1.105

Cc1cc(Nc2ccc(Cl)cc2)n2nc(C(F)(F)F)nc2n1
Ratio: 0.9718

Cc1ccnc(NC(c2cccc(OCc3ccccc3)c2)c2ccc3cccnc3c2O)c1 (stereo not given)
Ratio: 1.558

CC1CC(C)CN(C(=O)c2ccc(Cl)cc2Cl)C1 (stereo not given)
Ratio: 0.6364

CN1CCN(c2ccc(Nc3c4ccccc4nc4ccccc34)cc2)CC1
Ratio: 0.8

COc1cccc(Cn2c(Oc3ccccc3)nc3c2c(=O)n(C)c(=O)n3C)c1
Ratio: 0.9255

CC(C)CCNCC(O)Cn1c2ccccc2c2ccccc21.Cl (stereo not given)
Ratio: 0.9245

COc1ccc(-c2nc(N3CCN(C(=O)C4CCCCC4)CC3)c3c4c(sc3n2)CCCC4)cc1
Ratio: 1.015

Cc1ccc(Cn2c(N3CCC(C(=O)NCc4cccs4)CC3)nc3ccccc32)cc1
Ratio: 1.032

COc1ccc(C2=C(c3ccc(OC)cc3)C3(c4ccccc4)C(=O)C2(c2ccccc2)C2C(=O)N(c4ccc(C)cc4)C(=O)C23)cc1 (stereo not given)
Ratio: 1.0625

OCCNc1nc(Nc2ccc(Cl)c(Cl)c2)nc2ccccc12
Ratio: 1.062

O=C(CCc1ccco1)NC1CCN(CC2(c3ccc(Cl)cc3)CCC2)CC1
Ratio: 0.875

COc1ccccc1CNC(=O)CCn1c(=O)[nH]c2ccsc2c1=O
Ratio: 1.123

CCOC(=O)C1(Cc2ccccc2)CCN(Cc2cccc(OC)c2O)CC1
Ratio: 0.7015

COc1ccccc1C(=O)ON=C(N)Cc1cccc2ccccc12
Ratio: 1.06

COc1ccc(C2NCCc3c2[nH]c2ccccc32)cc1CN1CCN(c2ccc(F)cc2)CC1.Cl (stereo not given)
Ratio: 0.8727

COc1ccc(C(C)=O)cc1N1C(=O)C2C(C1=O)C1(c3ccccc3)C(=O)C2(c2ccccc2)C(c2ccc(C)cc2)=C1c1ccc(C)cc1 (stereo not given)
Ratio: 0.8421

COc1ccc(C(=O)NC(c2ccccc2Cl)c2cc(Cl)c3cccnc3c2O)cc1 (stereo not given)
Ratio: 1.365

CCCCc1c(C)nc2c(OC)cccc2c1O
Ratio: 0.8472

Cc1ccc(N2C(=O)C3C(C2=O)C2(c4ccccc4)C(=O)C3(c3ccccc3)C(c3ccccc3)=C2c2ccccc2)cc1 (stereo not given)
Ratio: 1.121

COc1ccc2sc(N(Cc3cccnc3)C(=O)c3ccc(C#N)cc3)nc2c1
Ratio: 0.8548

O=c1nc(C=Cc2ccc(Cl)cc2)oc2ccccc12
Ratio: 0.9697

CCOc1ccc(N2C(N)=NC(N)=NC2(C)C)cc1.Cl
Ratio: 0.7815

CCOC(=O)c1cn(CC)c2cc(N(C)CCc3ccc(OC)c(OC)c3)c(F)cc2c1=O
Ratio: 0.75

O=C(Nc1ccc(CN2CCOCC2)cc1)c1ccc(-c2cc(Cl)ccc2Cl)o1
Ratio: 0.9054

Oc1ccc(C(=C(Cl)Cl)c2ccc(O)cc2)cc1
Ratio: 1.113

Nc1ccn([C@@H]2O[C@H](CO)[C@@H](O)[C@H]2O)c(=O)n1 [CYTIDINE]
Ratio: 0.6667

COc1cc(OC)cc(N2C(=O)N(Cc3ccc(C(C)(C)C)cc3)c3ccccc3S2(=O)=O)c1
Ratio: 0.9143

O=C1c2ccccc2-c2nnc(-c3ccc(Br)cc3)cc21
Ratio: 0.8889

O=C(Nc1ccccc1O)c1ccc(-c2ccc(Cl)cc2Cl)o1
Ratio: 0.8413

CCCN(CCC)CCCNC(=O)c1cc2c(-c3ccc(OC)c(OC)c3)nn(C)c2s1
Ratio: 1.186

CC1CCCCN1CCCNC(=O)c1ccc2c(c1)sc1nc(-c3ccc(F)cc3)cn12 (stereo not given)
Ratio: 1.167

COc1ccc(-c2nonc2NC(=O)c2cccc(C)c2)cc1OC
Ratio: 1.066

CCCCc1ccc(NS(=O)(=O)c2cc3c4c(c2)CCN4C(=O)CC3)cc1
Ratio: 0.6295

Cc1cc(N2CCN(C3CCCC3)CC2)n2c(nc3ccccc32)c1C#N
Ratio: 0.7364

COc1ccccc1CNC(=O)CCn1c(=O)[nH]c2ccccc2c1=O
Ratio: 1.153

COc1cccc(NC(=O)[C@H](C(C)C)n2c(=O)[nH]c3ccccc3c2=O)c1
Ratio: 0.7619

Cc1ccc(-c2cc(C(=O)Nc3ccc(S(=O)(=O)N4CCCCC4)cc3)[nH]n2)c(O)c1
Ratio: 0.875

COc1ccccc1N1C(=N)SC(=Cc2ccc(OCc3ccccc3F)cc2)C1=O
Ratio: 1.033

Cc1ccc2cc3c(N)c4c(C)ccc(C)c4nc3nc2c1
Ratio: 1.095

C[n+]1c2ccccc2nc2ccc(NCCO)cc21
Ratio: 0.9178

CCN(CC)CCn1c(=N)n(CC(O)c2ccc(Cl)c(Cl)c2)c2ccccc21.Cl (stereo not given)
Ratio: 0.9508

CC(C)CNC(=O)c1c(N)n(CCc2ccccc2F)c2nc3ccccc3nc12
Ratio: 0.63
